assay: Apparent intrinsic clearance in human liver microsomes; format: ADME, Microsome

| SMILES | microsomal CLint [µL/min/mg] |
| --- | --- |
| C[C@@H]1CCN(C(=O)CC#N)C[C@@H]1N(C)c1ncnc2[nH]ccc12 [TOFACITINIB] | 10 |
| CC1CCN(C(=O)CC(F)(F)F)CC1N(C)c1ncnc2[nH]ccc12 (centres undefined) | 16 |
| CC1CCN(C(=O)CS(C)(=O)=O)CC1N(C)c1ncnc2[nH]ccc12 (centres undefined) | 8 |
| CC1CCN(C(=O)C2CCOC2)CC1N(C)c1ncnc2[nH]ccc12 (centres undefined) | 11 |
